Data published in the NIST ThermoML archive (doi:10.1007/s10765-016-2064-y).

Columns and labels:
[1] = molar heat capacity at constant pressure; details: 101.33 kPa, Liquid, Large sample (1 g) DSC
[2] = 101.33 kPa, Liquid; for speed of sound: Pulse-echo method; for mass density: Pycnometric method

CCCCCCCCCCBr [1-bromodecane]
[1]
Details | molar heat capacity at constant pressure [J/K/mol]
298.15 K | 334.38
303.15 K | 336.85
308.15 K | 339.35
313.15 K | 341.85
318.15 K | 344.35
323.15 K | 346.85
328.15 K | 349.35
333.15 K | 351.85
338.15 K | 354.33
343.15 K | 356.83
348.15 K | 359.33
353.15 K | 361.82
358.15 K | 364.32
363.15 K | 366.82
368.15 K | 369.32
373.15 K | 371.8
378.15 K | 374.3
383.15 K | 376.8
388.15 K | 379.3
393.15 K | 381.8
398.15 K | 384.3
403.15 K | 386.8
408.15 K | 389.27
413.15 K | 391.77
418.15 K | 394.27
423.15 K | 396.77

CCCCCCCCCCCCBr [1-bromododecane]
[1]
Details | molar heat capacity at constant pressure [J/K/mol]
298.15 K | 399.29
303.15 K | 402.38
308.15 K | 405.47
313.15 K | 408.56
318.15 K | 411.65
323.15 K | 414.75
328.15 K | 417.84
333.15 K | 420.93
338.15 K | 424.02
343.15 K | 427.11
348.15 K | 430.2
353.15 K | 433.26
358.15 K | 436.35
363.15 K | 439.44
368.15 K | 442.53
373.15 K | 445.62
378.15 K | 448.72
383.15 K | 451.81
388.15 K | 454.9
393.15 K | 457.99
398.15 K | 461.08
403.15 K | 464.14
408.15 K | 467.23
413.15 K | 470.32
418.15 K | 473.41
423.15 K | 476.5

CCCCCCCBr [1-bromoheptane]
[1]
Details | molar heat capacity at constant pressure [J/K/mol]
298.15 K | 249.39
303.15 K | 251.24
308.15 K | 253.07
313.15 K | 254.91
318.15 K | 256.75
323.15 K | 258.58
328.15 K | 260.43
333.15 K | 262.27
338.15 K | 264.1
343.15 K | 265.94
348.15 K | 267.77
353.15 K | 269.61
358.15 K | 271.46
363.15 K | 273.29
368.15 K | 275.13
373.15 K | 276.98
378.15 K | 278.8
383.15 K | 280.65
388.15 K | 282.47
393.15 K | 284.32
398.15 K | 286.16
403.15 K | 287.99
408.15 K | 289.83
413.15 K | 291.68
418.15 K | 293.51
423.15 K | 295.35

CCCCCCBr [1-bromohexane]
[1]
Details | molar heat capacity at constant pressure [J/K/mol]
298.15 K | 219.66
303.15 K | 221.28
308.15 K | 222.9
313.15 K | 224.51
318.15 K | 226.13
323.15 K | 227.77
328.15 K | 229.38
333.15 K | 231
338.15 K | 232.62
343.15 K | 234.24
348.15 K | 235.87
353.15 K | 237.49
358.15 K | 239.11
363.15 K | 240.72
368.15 K | 242.34
373.15 K | 243.96
378.15 K | 245.59
383.15 K | 247.21
388.15 K | 248.83
393.15 K | 250.45
398.15 K | 252.06
403.15 K | 253.68
408.15 K | 255.32
413.15 K | 256.93
418.15 K | 258.55
423.15 K | 260.17

CCCCCCCCCBr [1-bromononane]
[1]
Details | molar heat capacity at constant pressure [J/K/mol]
298.15 K | 308.3
303.15 K | 310.56
308.15 K | 312.82
313.15 K | 315.1
318.15 K | 317.36
323.15 K | 319.61
328.15 K | 321.87
333.15 K | 324.15
338.15 K | 326.41
343.15 K | 328.67
348.15 K | 330.92
353.15 K | 333.2
358.15 K | 335.46
363.15 K | 337.72
368.15 K | 339.98
373.15 K | 342.26
378.15 K | 344.51
383.15 K | 346.77
388.15 K | 349.03
393.15 K | 351.31
398.15 K | 353.57
403.15 K | 355.82
408.15 K | 358.08
413.15 K | 360.36
418.15 K | 362.62
423.15 K | 364.88

CCCCCCCCBr [1-bromooctane]
[1]
Details | molar heat capacity at constant pressure [J/K/mol]
298.15 K | 272.15
303.15 K | 274.7
308.15 K | 277.25
313.15 K | 279.8
318.15 K | 282.35
323.15 K | 284.92
328.15 K | 287.47
333.15 K | 290.02
338.15 K | 292.56
343.15 K | 295.11
348.15 K | 297.66
353.15 K | 300.23
358.15 K | 302.78
363.15 K | 305.33
368.15 K | 307.88
373.15 K | 310.43
378.15 K | 313
383.15 K | 315.55
388.15 K | 318.1
393.15 K | 320.64
398.15 K | 323.19
403.15 K | 325.76
408.15 K | 328.31
413.15 K | 330.86
418.15 K | 333.41
423.15 K | 335.96

CCCCCCCCCCCBr [1-bromoundecane]
[1]
Details | molar heat capacity at constant pressure [J/K/mol]
298.15 K | 373.22
303.15 K | 375.72
308.15 K | 378.21
313.15 K | 380.7
318.15 K | 383.19
323.15 K | 385.69
328.15 K | 388.18
333.15 K | 390.67
338.15 K | 393.17
343.15 K | 395.66
348.15 K | 398.15
353.15 K | 400.62
358.15 K | 403.12
363.15 K | 405.61
368.15 K | 408.1
373.15 K | 410.6
378.15 K | 413.09
383.15 K | 415.58
388.15 K | 418.08
393.15 K | 420.57
398.15 K | 423.06
403.15 K | 425.56
408.15 K | 428.02
413.15 K | 430.52
418.15 K | 433.01
423.15 K | 435.5

CCCCCCCCCCCCCCBr [1-tetradecyl bromide]
Details | mass density, [2] [kg/m3] | molar heat capacity at constant pressure, [1] [J/K/mol] | speed of sound, [2] [m/s]
298.15 K | 1012.2 | 450.84 | 1277.2
303.15 K | 1008.1 | 454.08 | 1260.6
308.15 K | 1003.9 | 457.3 | 1244.1
313.15 K | 999.8 | 460.54 | 1227.9
318.15 K | 995.7 | 463.79 | 1211.9
323.15 K | 991.6 | 467.03 | 1196
328.15 K | 987.4 | 470.27 | 1180.4
333.15 K | 983.3 | 473.52 | 1164.9
338.15 K | 979.1 | 476.73 | 1149.6
343.15 K | 974.9 | 479.98 | 1134.5
348.15 K | 970.8 | 483.22 | 1119.5
353.15 K | 966.6 | 486.47 | 1104.6
358.15 K | 962.4 | 489.71 | 1089.9
363.15 K | 958.2 | 492.93 | 1075.3
368.15 K | 954 | 496.17 | 1060.9
373.15 K | 949.8 | 499.42 | 1046.5
378.15 K | 945.6 | 502.66 | 1032.3
383.15 K | 941.3 | 505.9 | 1018.2
388.15 K | 937.1 | 509.15 | 1004.2
393.15 K | 932.9 | 512.37 | 990.2
398.15 K | 928.6 | 515.61 | 976.4
403.15 K | 924.4 | 518.85 | 962.6
408.15 K | 920.1 | 522.1 | 948.9
413.15 K | 915.9 | 525.34 | 935.3
418.15 K | 911.6 | 528.56 | 921.7
423.15 K | 907.4 | 531.8 | 908.1
